From paper PMC11173618, “C2-Symmetrical Terphenyl Derivatives as Small Molecule Inhibitors of Programmed Cell Death 1/Programmed Death Ligand 1 Protein–Protein Interaction” (Molecules, 2024)

Target: T1, PD-1/PD-L1 complex (Homo sapiens, UniProt Q9NZQ7)
T1 construct: purchased cis-bio
Assay: HTRF assay of PD-1/PD-L1 complex inhibition (cis-bio kit)
Format: binding
Conditions: for inhibition at 0.5 µM / inhibition at 5 µM: 1 h, scouting mode, 5 nM PD-L1, 50 nM PD-1, read-out: HTRF [%] (percentage of dissociated PD-1/PD-L1 complex); for inhibition at 0.5 µM: inhibitor 0.5 µM; for inhibition at 5 µM: inhibitor 5 µM
Protocol: All synthesized molecules were tested in the homogeneous time-resolved fluorescence (HTRF) assay to assess their activity as inhibitors of the PD-1/PD-L1 complex (Table 1, Table 2 and Table 3). This evaluation was conducted in scouting modes, employing concentrations of 5 μM and 0.5 μM. Based on the obtained measurements, the IC50 values were estimated for each tested compound.
The certified cis-bio assay kit was used to perform the HTRF assay. Following the standard protocol, the measurement was carried out at a 20 µL final volume with a 5 nM concentration of PD-L1 and a 50 nM concentration of PD-1 in the final formulation. […] The plate was incubated for 1 h and then read on an HTRF-certified Tecan Spark 20M microplate reader. Output data were subjected to background subtraction on negative control (without PD-1) and normalization in correlation to the positive control (without inhibitor) and were then averaged. The resulting data points were then fitted with Hill’s equation to generate IC50 using Mathematica 12. […]

T1 sequence (Q9NZQ7 19-238 limits assumed, one chain of several): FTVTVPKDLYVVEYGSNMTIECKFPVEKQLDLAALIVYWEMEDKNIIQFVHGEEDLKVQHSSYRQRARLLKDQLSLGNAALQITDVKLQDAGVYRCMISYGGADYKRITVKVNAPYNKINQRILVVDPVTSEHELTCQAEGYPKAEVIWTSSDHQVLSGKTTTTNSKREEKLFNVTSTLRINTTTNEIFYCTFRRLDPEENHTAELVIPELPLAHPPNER

Row | SMILES | inhibition at 0.5 µM [%] | inhibition at 5 µM [%] | IC50 Estimated (estimated from scouting data (5 and 0.5 µM) by translation of the Hill fit of 7b, 7j, 7m)
1 | CC(=O)NCCNCc1cccc(OCc2cccc(-c3cc(C)cc(-c4cccc(COc5cccc(CNCCNC(C)=O)c5)c4)c3)c2)c1 [Compound 4a, N,N’-(((((((5′-methyl-[1,1′:3′,1′′-terphenyl]-3,3′′-diyl)bis(methylene))bis(oxy))bis(3,1-phenylene))bis(methylene))bis(azanediyl))bis(ethane-2,1-diyl))diacetamide] | 80.4 ± 18.8 | 56.8 ± 15.4 | –
2 | CC(=O)NCCNCc1cccc(OCc2cccc(-c3cc(C)cc(-c4cccc(COc5cccc(CNCCNC(C)=O)c5Br)c4)c3)c2)c1Br [Compound 4c, N,N’-(((((((5′-methyl-[1,1′:3′,1′′-terphenyl]-3,3′′-diyl)bis(methylene))bis(oxy))bis(2-bromo-3,1-phenylene))bis(methylene))bis(azanediyl))bis(ethane-2,1-diyl))diacetamide] | 88.6 ± 14 | 70.8 ± 18.8 | –
3 | CC(=O)NCCNCc1cccc(OCc2cccc(-c3cc(C)cc(-c4cccc(COc5cccc(CNCCNC(C)=O)c5)c4F)c3)c2F)c1 [Compound 4d, N,N’-(((((((2,2′′-difluoro-5′-methyl-[1,1′:3′,1′′-terphenyl]-3,3′′-diyl)bis(methylene))bis(oxy))bis(3,1-phenylene))bis(methylene))bis(azanediyl))bis(ethane-2,1-diyl))diacetamide] | 89.9 ± 19.8 | 22.5 ± 9.17 | –
4 | CC(=O)NCCNCc1cccc(OCc2cccc(-c3cc(C)cc(-c4cccc(COc5cccc(CNCCNC(C)=O)c5Br)c4C)c3)c2C)c1Br [Compound 4e, N,N’-(((((((2,2′′,5′-trimethyl-[1,1′:3′,1′′-terphenyl]-3,3′′-diyl)bis(methylene))bis(oxy))bis(2-bromo-3,1-phenylene))bis(methylene))bis(azanediyl))bis(ethane-2,1-diyl))diacetamide] | 93.9 ± 5.5 | 94.2 ± 2.3 | not active
5 | CC(=O)NCCNCc1cc(F)c(OCc2cccc(-c3cc(C)cc(-c4cccc(COc5cc(F)c(CNCCNC(C)=O)cc5F)c4C)c3)c2C)cc1F [Compound 4f, N,N’-(((((((2,2′′,5′-trimethyl-[1,1′:3′,1′′-terphenyl]-3,3′′-diyl)bis(methylene))bis(oxy))bis(2,5-difluoro-4,1-phenylene))bis(methylene))bis(azanediyl))bis(ethane-2,1-diyl))diacetamide] | 85.7 ± 10.9 | 28.2 ± 1.5 | –
6 | COc1cccc(CNCCNC(C)=O)c1OCc1ccccc1-c1cc(C)cc(-c2ccccc2COc2c(CNCCNC(C)=O)cccc2OC)c1 [Compound 5a, N,N’-(((((((5′-methyl-[1,1′:3′,1′′-terphenyl]-2,2′′-diyl)bis(methylene))bis(oxy))bis(3-methoxy-2,1-phenylene))bis(methylene))bis(azanediyl))bis(ethane-2,1-diyl))diacetamide] | 84.3 ± 13.1 | 78.4 ± 6.4 | –
7 | COc1cc(-c2cc(C)cc(-c3ccc(COc4c(CNCCNC(C)=O)cccc4OC)c(OC)c3)c2)ccc1COc1c(CNCCNC(C)=O)cccc1OC [Compound 6a, N,N’-(((((((3,3′′-dimethoxy-5′-methyl-[1,1′:3′,1′′-terphenyl]-4,4′′-diyl)bis(methylene))bis(oxy))bis(3-methoxy-2,1-phenylene))bis(methylene))bis(azanediyl))bis(ethane-2,1-diyl))diacetamide] | 86.1 ± 4.5 | 59.2 ± 2.6 | –
8 | COc1cc(-c2cccc(-c3ccc(COc4ccc(CNCCNC(C)=O)cc4OC)c(OC)c3)c2C)ccc1COc1ccc(CNCCNC(C)=O)cc1OC [Compound 7a, N,N’-(((((((3,3′′-dimethoxy-2′-methyl-[1,1′:3′,1′′-terphenyl]-4,4′′-diyl)bis(methylene))bis(oxy))bis(3-methoxy-4,1-phenylene))bis(methylene))bis(azanediyl))bis(ethane-2,1-diyl))diacetamide] | 72.5 ± 8.1 | 23.8 ± 0.3 | –
9 | COc1cc(-c2cccc(-c3ccc(COc4ccc(CNCCO)cc4OC)c(OC)c3)c2C)ccc1COc1ccc(CNCCO)cc1OC [Compound 7b, 2,2′-((((((3,3′′-dimethoxy-2′-methyl-[1,1′:3′,1′′-terphenyl]-4,4′′-diyl)bis(methylene))bis(oxy))bis(3-methoxy-4,1-phenylene))bis(methylene))bis(azanediyl))bis(ethan-1-ol)] | 60.9 ± 3.9 | 11.9 ± 1 | –
10 | COc1cc(CNCCNC(C)=O)ccc1OCc1ccc(-c2cccc(-c3ccc(COc4ccc(CNCCNC(C)=O)cc4OC)cc3C)c2C)c(C)c1 [Compound 7c, N,N’-(((((((2,2′,2′′-trimethyl-[1,1′:3′,1′′-terphenyl]-4,4′′-diyl)bis(methylene))bis(oxy))bis(3-methoxy-4,1-phenylene))bis(methylene))bis(azanediyl))bis(ethane-2,1-diyl))diacetamide] | 82.1 ± 8 | 77.1 ± 0.7 | –
11 | COc1cc(CNCCO)ccc1OCc1ccc(-c2cccc(-c3ccc(COc4ccc(CNCCO)cc4OC)cc3C)c2C)c(C)c1 [Compound 7d, 2,2′-((((((2,2′,2′′-trimethyl-[1,1′:3′,1′′-terphenyl]-4,4′′-diyl)bis(methylene))bis(oxy))bis(3-methoxy-4,1-phenylene))bis(methylene))bis(azanediyl))bis(ethan-1-ol)] | 86.1 ± 12.7 | 35.7 ± 3.3 | –
12 | COc1cc(CNCCNC(C)=O)ccc1OCc1ccc(-c2cccc(-c3ccc(COc4ccc(CNCCNC(C)=O)cc4OC)c(C)c3)c2C)cc1C [Compound 7e, N,N’-(((((((2′,3,3′′-trimethyl-[1,1′:3′,1′′-terphenyl]-4,4′′-diyl)bis(methylene))bis(oxy))bis(3-methoxy-4,1-phenylene))bis(methylene))bis(azanediyl))bis(ethane-2,1-diyl))diacetamide] | 93.8 ± 3.6 | 55.3 ± 13.4 | –
13 | COc1cc(CNCCO)ccc1OCc1ccc(-c2cccc(-c3ccc(COc4ccc(CNCCO)cc4OC)c(C)c3)c2C)cc1C [Compound 7f, 2,2′-((((((2′,3,3′′-trimethyl-[1,1′:3′,1′′-terphenyl]-4,4′′-diyl)bis(methylene))bis(oxy))bis(3-methoxy-4,1-phenylene))bis(methylene))bis(azanediyl))bis(ethan-1-ol)] | 93.1 ± 17.4 | 46.4 ± 9.6 | –
14 | COc1cc(CNC(CO)CO)ccc1OCc1ccc(-c2cccc(-c3ccc(COc4ccc(CNC(CO)CO)cc4OC)c(C)c3)c2C)cc1C [Compound 7g, 2,2′-((((((2′,3,3′′-trimethyl-[1,1′:3′,1′′-terphenyl]-4,4′′-diyl)bis(methylene))bis(oxy))bis(3-methoxy-4,1-phenylene))bis(methylene))bis(azanediyl))bis(propane-1,3-diol)] | 94.5 ± 18.1 | 53.7 ± 1.7 | –
15 | CC(=O)NCCNCc1cc(F)c(OCc2ccc(-c3cccc(-c4ccc(COc5cc(F)c(CNCCNC(C)=O)cc5F)c(C)c4)c3C)cc2C)cc1F [Compound 7h, N,N’-(((((((2′,3,3′′-trimethyl-[1,1′:3′,1′′-terphenyl]-4,4′′-diyl)bis(methylene))bis(oxy))bis(2,5-difluoro-4,1-phenylene))bis(methylene))bis(azanediyl))bis(ethane-2,1-diyl))diacetamide] | 84.1 ± 26.4 | 69 ± 0.9 | –
16 | Cc1cc(-c2cccc(-c3ccc(COc4cc(F)c(CNCCO)cc4F)c(C)c3)c2C)ccc1COc1cc(F)c(CNCCO)cc1F [Compound 7i, 2,2′-((((((2′,3,3′′-trimethyl-[1,1′:3′,1′′-terphenyl]-4,4′′-diyl)bis(methylene))bis(oxy))bis(2,5-difluoro-4,1-phenylene))bis(methylene))bis(azanediyl))bis(ethan-1-ol)] | 78.5 ± 7.3 | 42.2 ± 7.2 | –
17 | CC(=O)NCCNCc1cccc(OCc2ccc(-c3cccc(-c4ccc(COc5cccc(CNCCNC(C)=O)c5Br)cc4)c3C)cc2)c1Br [Compound 7j, N,N’-(((((((2′-methyl-[1,1′:3′,1′′-terphenyl]-4,4′′-diyl)bis(methylene))bis(oxy))bis(2-bromo-3,1-phenylene))bis(methylene))bis(azanediyl))bis(ethane-2,1-diyl))diacetamide] | 40.4 ± 1.5 | 11.1 ± 0.3 | –
18 | Cc1c(-c2cccc(COc3cccc(CNCCO)c3Br)c2)cccc1-c1cccc(COc2cccc(CNCCO)c2Br)c1 [Compound 8a, 2,2′-((((((2′-methyl-[1,1′:3′,1′′-terphenyl]-3,3′′-diyl)bis(methylene))bis(oxy))bis(2-bromo-3,1-phenylene))bis(methylene))bis(azanediyl))bis(ethan-1-ol)] | 94.6 ± 0.1 | 23 ± 0.1 | –
19 | COc1cccc(CNCCO)c1OCc1cccc(-c2cccc(-c3cccc(COc4c(CNCCO)cccc4OC)c3)c2C)c1 [Compound 8c, 2,2′-((((((2′-methyl-[1,1′:3′,1′′-terphenyl]-3,3′′-diyl)bis(methylene))bis(oxy))bis(3-methoxy-2,1-phenylene))bis(methylene))bis(azanediyl))bis(ethan-1-ol)] | 104 ± 3.3 | 61.1 ± 4.5 | –
